Test results taken from ChEMBL document CHEMBL1155172, “Distribution of radioactivity in bone and related structures following administration of [14C]dalbavancin to New Zealand white rabbits” (Antimicrob Agents Chemother, 2007).

How the values were obtained:
Design in all cases: dose 20 mg/kg, route intravenous
Details in all cases: in vivo
[1] = Drug level in New Zealand white rabbit epiphyseal plate assessed as [14C]dalbavancin level per gram of tissue at 20 mg/kg, iv after 12 hrs by autoradioluminography; assay type: ADME, organism-based, Oryctolagus cuniculus
[2] = Drug level in New Zealand white rabbit nucleus pulposus assessed as [14C]dalbavancin level per gram of tissue at 20 mg/kg, iv after 72 hrs by liquid scintillation counting method; assay type: ADME, organism-based, Oryctolagus cuniculus
[3] = Drug level in New Zealand white rabbit bone assessed as [14C]dalbavancin level per gram of tissue at 20 mg/kg, iv after 12 hrs by liquid scintillation counting method; assay type: ADME, organism-based, Oryctolagus cuniculus, Bone element
[4] = Drug level in New Zealand white rabbit ligament assessed as [14C]dalbavancin level per gram of tissue at 20 mg/kg, iv after 168 hrs by autoradioluminography; assay type: ADME, organism-based, Oryctolagus cuniculus
[5] = system: Oryctolagus cuniculus; test: Plasma concentration in New Zealand white rabbit assessed as [14C]dalbavancin level per gram of tissue at 20 mg/kg, iv after 12 hrs by liquid scintillation counting method; assay type: ADME, organism-based
[6] = Drug level in New Zealand white rabbit articular cartilage assessed as [14C]dalbavancin level per gram of tissue at 20 mg/kg, iv after 120 hrs by autoradioluminography; assay type: ADME, organism-based, Oryctolagus cuniculus
[7] = Drug level in New Zealand white rabbit periostium assessed as [14C]dalbavancin level per gram of tissue at 20 mg/kg, iv after 72 hrs by autoradioluminography; assay type: ADME, organism-based, Oryctolagus cuniculus, Periosteum
[8] = Drug level in New Zealand white rabbit synovial space assessed as [14C]dalbavancin level per gram of tissue at 20 mg/kg, iv after 24 hrs by autoradioluminography; assay type: ADME, organism-based, Oryctolagus cuniculus
[9] = Drug level in New Zealand white rabbit ligament assessed as [14C]dalbavancin level per gram of tissue at 20 mg/kg, iv after 72 hrs by autoradioluminography; assay type: ADME, organism-based, Oryctolagus cuniculus
[10] = Drug level in New Zealand white rabbit skeletal muscle assessed as [14C]dalbavancin level per gram of tissue at 20 mg/kg, iv after 24 hrs by autoradioluminography; assay type: ADME, organism-based, Oryctolagus cuniculus

CN[C@H]1C(=O)N[C@@H]2Cc3ccc(cc3)Oc3cc4cc(c3O[C@@H]3O[C@H](C(=O)O)[C@@H](O)[C@H](O)[C@H]3NC(=O)CCCCCCCCC(C)C)Oc3ccc(cc3Cl)[C@@H](O)[C@@H]3NC(=O)[C@H](NC(=O)[C@@H]4NC(=O)[C@@H](NC2=O)c2cc(cc(O)c2Cl)Oc2cc1ccc2O)c1ccc(O)c(c1)-c1c(O[C@H]2O[C@H](CO)[C@@H](O)[C@H](O)[C@@H]2O)cc(O)cc1[C@@H](C(=O)NCCCN(C)C)NC3=O [DALBAVANCIN]
Drug uptake [1]: 21.9 µg/g
Drug uptake [2]: 0.67 µg
Drug uptake [3]: 7.04 µg
Drug uptake [4]: 2.67 µg
Cp [5]: 46.88 µg
Drug uptake [6]: 6.56 µg
Drug uptake [7]: 8.78 µg/g
Drug uptake [8]: 4.25 µg
Drug uptake [9]: 4.56 µg
Drug uptake [10]: 1.92 µg
